For one assay, the target named is ErbB2 WT (Homo sapiens (Human), UniProt P04626). The experiment in a line: ErbB Enzyme Assay (HTRF KinEASE-TK), Assay 2. It counts as biochemical. Background: TR-FRET usually uses a lanthanide donor and a delayed reading to cut background.
The target in a further assay is EGFR (Homo sapiens (Human), UniProt P00533). The assay can be described thus: ErbB Enzyme Assay (HTRF KinEASE-TK), Assay 3. It counts as biochemical.
Assay [1] deals with ErbB2 with Exon 20 YVMA insertion (HER2-YVMA) (Homo sapiens (Human), UniProt P04626, INS775YVMA). The assay can be described thus: Cellular Phosphorylation Assay, Assay 4 (constitutive ErbB2 phosphorylation, NIH 3T3 cells). Type of assay: cell-based.
A further assay has as its target EGFR wild type (EGFR WT) (Homo sapiens (Human), UniProt P00533). The assay can be described thus: Cellular Phosphorylation Assay, Assay 5 (EGF-stimulated EGFR phosphorylation, NIH 3T3 cells). It counts as cell-based.
Setting [2] is: EGF-stimulated EGFR WT phosphorylation.
Where [3] appears, read: cellular ErbB2 YVMA phosphorylation.
[4] abbreviates: cellular EGFR WT phosphorylation, EGF-stimulated.

A value given as a limit tells only on which side of the number the result lay.

Chain of ErbB2 WT (P04626 23-1255): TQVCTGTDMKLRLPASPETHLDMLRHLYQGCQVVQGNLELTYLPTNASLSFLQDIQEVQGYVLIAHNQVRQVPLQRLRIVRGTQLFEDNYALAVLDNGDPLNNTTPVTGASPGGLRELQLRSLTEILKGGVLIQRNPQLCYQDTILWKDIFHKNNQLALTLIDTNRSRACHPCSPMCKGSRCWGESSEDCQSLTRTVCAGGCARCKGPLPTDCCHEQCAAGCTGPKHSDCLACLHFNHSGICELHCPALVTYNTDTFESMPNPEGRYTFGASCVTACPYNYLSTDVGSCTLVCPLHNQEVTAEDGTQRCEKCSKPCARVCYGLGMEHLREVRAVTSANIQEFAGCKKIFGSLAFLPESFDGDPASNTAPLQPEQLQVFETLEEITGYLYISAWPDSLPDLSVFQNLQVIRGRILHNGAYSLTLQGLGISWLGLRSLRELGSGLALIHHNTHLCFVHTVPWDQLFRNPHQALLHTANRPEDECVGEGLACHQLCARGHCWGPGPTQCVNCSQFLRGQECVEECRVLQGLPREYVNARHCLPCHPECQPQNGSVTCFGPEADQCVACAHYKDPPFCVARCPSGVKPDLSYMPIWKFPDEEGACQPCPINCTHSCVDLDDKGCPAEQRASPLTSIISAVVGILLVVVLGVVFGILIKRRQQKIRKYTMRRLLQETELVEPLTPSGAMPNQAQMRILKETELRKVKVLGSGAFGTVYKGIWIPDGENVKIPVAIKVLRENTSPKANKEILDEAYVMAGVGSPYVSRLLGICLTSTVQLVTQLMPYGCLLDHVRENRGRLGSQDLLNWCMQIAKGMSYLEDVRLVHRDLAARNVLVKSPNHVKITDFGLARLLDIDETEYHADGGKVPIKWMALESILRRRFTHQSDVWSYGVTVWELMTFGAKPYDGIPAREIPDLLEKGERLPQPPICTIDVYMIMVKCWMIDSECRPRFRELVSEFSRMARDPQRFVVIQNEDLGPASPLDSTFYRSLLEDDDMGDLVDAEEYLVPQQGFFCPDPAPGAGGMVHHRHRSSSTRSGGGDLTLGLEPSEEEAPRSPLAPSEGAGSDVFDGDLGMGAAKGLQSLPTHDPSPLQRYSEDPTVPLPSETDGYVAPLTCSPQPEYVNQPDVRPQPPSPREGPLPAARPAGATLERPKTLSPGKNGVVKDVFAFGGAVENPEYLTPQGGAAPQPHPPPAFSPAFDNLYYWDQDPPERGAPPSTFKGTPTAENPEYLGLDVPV
Chain of ErbB2 with Exon 20 YVMA insertion (HER2-YVMA) (P04626 other isoform, or with tags, fused parts or gaps ins YVMA behind 775): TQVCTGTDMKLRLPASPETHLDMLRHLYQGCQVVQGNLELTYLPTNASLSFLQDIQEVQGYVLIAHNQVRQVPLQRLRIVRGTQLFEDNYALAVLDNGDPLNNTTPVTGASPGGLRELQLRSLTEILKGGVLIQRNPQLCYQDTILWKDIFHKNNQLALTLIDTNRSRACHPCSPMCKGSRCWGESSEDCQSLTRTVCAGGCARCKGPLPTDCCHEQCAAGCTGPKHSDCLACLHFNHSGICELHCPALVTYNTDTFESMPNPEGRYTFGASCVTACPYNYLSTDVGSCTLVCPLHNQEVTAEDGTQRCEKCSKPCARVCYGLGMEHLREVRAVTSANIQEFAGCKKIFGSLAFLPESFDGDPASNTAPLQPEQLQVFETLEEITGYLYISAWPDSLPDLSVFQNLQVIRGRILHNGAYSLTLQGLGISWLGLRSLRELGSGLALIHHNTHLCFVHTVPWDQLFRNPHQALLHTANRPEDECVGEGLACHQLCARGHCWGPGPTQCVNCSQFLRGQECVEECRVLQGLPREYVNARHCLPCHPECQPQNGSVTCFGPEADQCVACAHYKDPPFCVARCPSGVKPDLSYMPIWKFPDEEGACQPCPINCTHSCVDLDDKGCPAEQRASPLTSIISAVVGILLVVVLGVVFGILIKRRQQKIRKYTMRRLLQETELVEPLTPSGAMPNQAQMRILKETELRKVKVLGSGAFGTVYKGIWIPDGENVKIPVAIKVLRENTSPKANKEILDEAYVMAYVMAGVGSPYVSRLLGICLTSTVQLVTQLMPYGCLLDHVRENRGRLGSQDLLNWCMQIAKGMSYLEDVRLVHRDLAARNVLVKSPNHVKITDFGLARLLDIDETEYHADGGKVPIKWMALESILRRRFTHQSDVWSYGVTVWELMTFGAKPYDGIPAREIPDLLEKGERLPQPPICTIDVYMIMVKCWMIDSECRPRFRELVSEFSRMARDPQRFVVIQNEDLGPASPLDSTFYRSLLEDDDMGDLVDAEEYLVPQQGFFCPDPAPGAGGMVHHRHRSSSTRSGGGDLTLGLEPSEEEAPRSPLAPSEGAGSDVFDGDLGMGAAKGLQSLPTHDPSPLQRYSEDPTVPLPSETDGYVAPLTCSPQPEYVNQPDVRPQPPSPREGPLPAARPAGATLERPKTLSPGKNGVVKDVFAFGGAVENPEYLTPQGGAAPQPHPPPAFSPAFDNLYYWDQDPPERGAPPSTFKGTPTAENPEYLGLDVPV
Chain of EGFR (P00533 25-1210): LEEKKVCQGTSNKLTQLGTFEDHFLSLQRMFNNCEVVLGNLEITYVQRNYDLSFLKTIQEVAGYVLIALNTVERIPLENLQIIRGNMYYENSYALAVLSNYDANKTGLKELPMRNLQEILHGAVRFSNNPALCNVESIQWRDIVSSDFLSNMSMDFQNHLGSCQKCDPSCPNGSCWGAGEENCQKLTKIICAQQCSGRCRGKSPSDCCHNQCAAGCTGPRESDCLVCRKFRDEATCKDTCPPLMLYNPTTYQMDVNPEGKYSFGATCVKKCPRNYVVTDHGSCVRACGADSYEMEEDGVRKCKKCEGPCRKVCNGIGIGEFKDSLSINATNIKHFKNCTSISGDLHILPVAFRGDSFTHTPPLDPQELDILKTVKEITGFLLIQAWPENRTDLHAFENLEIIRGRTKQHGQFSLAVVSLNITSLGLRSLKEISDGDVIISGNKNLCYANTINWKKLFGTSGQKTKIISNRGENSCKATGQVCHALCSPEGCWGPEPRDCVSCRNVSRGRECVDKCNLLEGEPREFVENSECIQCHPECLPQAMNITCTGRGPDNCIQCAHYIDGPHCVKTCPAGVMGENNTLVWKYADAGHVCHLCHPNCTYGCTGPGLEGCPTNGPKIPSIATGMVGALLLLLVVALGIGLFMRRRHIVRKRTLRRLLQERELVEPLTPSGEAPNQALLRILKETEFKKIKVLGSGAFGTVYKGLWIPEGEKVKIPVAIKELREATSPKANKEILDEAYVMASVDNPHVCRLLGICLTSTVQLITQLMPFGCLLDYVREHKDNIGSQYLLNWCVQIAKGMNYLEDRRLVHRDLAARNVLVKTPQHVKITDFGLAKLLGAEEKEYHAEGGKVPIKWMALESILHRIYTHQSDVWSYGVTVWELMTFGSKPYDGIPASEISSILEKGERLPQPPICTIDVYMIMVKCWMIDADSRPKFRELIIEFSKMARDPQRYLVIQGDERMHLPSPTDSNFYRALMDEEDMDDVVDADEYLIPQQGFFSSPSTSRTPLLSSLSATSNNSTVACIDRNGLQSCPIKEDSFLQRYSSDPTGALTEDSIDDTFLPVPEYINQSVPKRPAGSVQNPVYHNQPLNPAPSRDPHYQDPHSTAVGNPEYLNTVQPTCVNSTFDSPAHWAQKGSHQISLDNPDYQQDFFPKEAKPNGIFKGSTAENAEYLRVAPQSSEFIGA
Chain of EGFR wild type (EGFR WT) (P00533 25-1210): as above

In the case of `C=CC(=O)N1CCC(Oc2ccc3ncnc(Nc4ccc(Oc5cnc6cn(C)nc6c5)c(C)c4)c3n2)CC1` [Example 14, 1-(4-((4-((3-methyl-4-((2-methyl-2H-pyrazolo[4,3-b]pyridin-6-yl)oxy)phenyl)amino)pyrido[3,2-d]pyrimidin-6-yl)oxy)piperidin-1-yl)prop-2-en-1-one], the IC50 on ErbB2 WT (ErbB2 WT enzyme) is 0.432 µM; against EGFR (EGFR enzyme), no less than 10 µM; in assay [1] (ErbB2 YVMA phosphorylation) it was 0.0484 µM; against EGFR wild type (EGFR WT) (setting [2]) it was no less than 5 µM.

In the case of `C=CC(=O)N1C[C@@H]2CC[C@H]1CN2c1ccc2ncnc(Nc3cc(C)c(Oc4cnc5c(c4)ncn5C)cc3F)c2n1` [Example 324], the IC50 at ErbB2 WT (ErbB2 WT enzyme assay) was determined as 0.0508 µM; at EGFR (EGFR enzyme assay), 0.419 µM; in assay [1] (setting [3]), 0.0102 µM; at EGFR wild type (EGFR WT) (setting [4]), 0.276 µM.

In the case of `C=CC(=O)N1[C@@H]2CC[C@H]1C[C@@H](c1ccc3ncnc(Nc4cc(C)c(Oc5ccn6ncnc6c5)cc4F)c3n1)C2` [Example 206, 1-((1R,3r,5S)-3-(4-((4-([1,2,4]triazolo[1,5-a]pyridin-7-yloxy)-2-fluoro-5-methylphenyl)amino)pyrido[3,2-d]pyrimidin-6-yl)-8-azabicyclo[3.2.1]octan-8-yl)prop-2-en-1-one], the IC50 on ErbB2 WT (ErbB2 WT enzyme) is 0.151 µM; against EGFR (EGFR enzyme) it was 4.77 µM; in assay [1] (ErbB2 YVMA phosphorylation) it was 0.115 µM; against EGFR wild type (EGFR WT) (setting [2]), no less than 5 µM.

With `C=CC(=O)N1CCC[C@@H](c2ccc3ncnc(Nc4ccc(Oc5ccn6ncnc6c5)c(C)c4F)c3n2)CC1` (single isomer, unassigned) [Example 210], the IC50 is 0.0107 µM against ErbB2 WT (ErbB2 WT enzyme), 1.61 µM against EGFR (EGFR enzyme), 0.0677 µM in assay [1] (ErbB2 YVMA phosphorylation) and no less than 5 µM against EGFR wild type (EGFR WT) (setting [2]).

With `C=CC(=O)N1CC[C@H]2C[C@@H](c3ccc4ncnc(Nc5ccc(Oc6ccc7c(c6)ncn7C)c(C)c5F)c4n3)C[C@H]21` (racemic) [Example 133, rac-1-((3aR,5R,6aR)-5-(4-((2-fluoro-3-methyl-4-((1-methyl-1H-benzo[d]imidazol-5-yl)oxy)phenyl)amino)pyrido[3,2-d]pyrimidin-6-yl)hexahydrocyclopenta[b]pyrrol-1(2H)-yl)prop-2-en-1-one], the IC50 on ErbB2 WT (ErbB2 WT enzyme) was determined as 0.0415 µM; on EGFR (EGFR enzyme), 3.17 µM; in assay [1] (ErbB2 YVMA phosphorylation), 0.034 µM; against EGFR wild type (EGFR WT) (setting [2]), 3.78 µM.

`C=CC(=O)N1CCN(c2ccc3ncnc(Nc4ccc(Oc5ccn6ncnc6c5)c(Cl)c4F)c3n2)C[C@@H]1C(F)(F)F` [Example 86, (R)-1-(4-(4-((4-([1,2,4]triazolo[1,5-a]pyridin-7-yloxy)-3-chloro-2-fluorophenyl)amino)pyrido[3,2-d]pyrimidin-6-yl)-2-(trifluoromethyl)piperazin-1-yl)prop-2-en-1-one]: the IC50 on ErbB2 WT (ErbB2 WT enzyme) was 0.0023 µM; at EGFR (EGFR enzyme), 0.03 µM; in assay [1] (ErbB2 YVMA phosphorylation), 0.0057 µM; on EGFR wild type (EGFR WT) (setting [2]), 0.0454 µM.

On to `CC#CC(=O)N1C2CCC1CN(c1ccc3ncnc(Nc4ccc(Oc5ccn6ncnc6c5)c(C)c4F)c3n1)C2` [Example 240, 1-(3-(4-((4-([1,2,4]triazolo[1,5-a]pyridin-7-yloxy)-2-fluoro-3-methylphenyl)amino)pyrido[3,2-d]pyrimidin-6-yl)-3,8-diazabicyclo[3.2.1]octan-8-yl)but-2-yn-1-one], for which the 50% inhibitory concentration (IC50) at ErbB2 WT (ErbB2 WT enzyme) worked out at 0.143 µM; on EGFR (EGFR enzyme) it was 4.9 µM; in assay [1] (ErbB2 YVMA phosphorylation), 0.0924 µM; on EGFR wild type (EGFR WT) (setting [2]), 2.02 µM.

Consider `C=CC(=O)N1CCC(Oc2ccc3ncnc(Nc4ccc(Oc5cnn6ccnc6c5)c(Cl)c4)c3n2)CC1` [Example 54, 1-(4-((4-((3-chloro-4-(imidazo[1,2-b]pyridazin-7-yloxy)phenyl)amino)pyrido[3,2-d]pyrimidin-6-yl)oxy)piperidin-1-yl)prop-2-en-1-one], for which the IC50 against ErbB2 WT (ErbB2 WT enzyme) was 0.423 µM; against EGFR (EGFR enzyme) it was 1.38 µM; in assay [1] (ErbB2 YVMA phosphorylation), 0.04 µM; against EGFR wild type (EGFR WT) (setting [2]), 1.47 µM.

As for `C=CC(=O)N1CC[C@H](c2ccc3ncnc(Nc4cc(C)c(Oc5ccc6c(c5)ncn6C)cc4F)c3n2)CC(C)(C)C1` (racemic) [Example 139, rac-(R)-1-(5-(4-((2-fluoro-5-methyl-4-((1-methyl-1H-benzo[d]imidazol-5-yl)oxy)phenyl)amino)pyrido[3,2-d]pyrimidin-6-yl)-3,3-dimethylazepan-1-yl)prop-2-en-1-one], the IC50 on ErbB2 WT (ErbB2 WT enzyme) was no less than 10 µM; against EGFR (EGFR enzyme), no less than 10 µM; in assay [1] (ErbB2 YVMA phosphorylation), 0.0325 µM; against EGFR wild type (EGFR WT) (setting [2]) it was no less than 5 µM.

As to `C=CC(=O)N1C2CCC1CN(c1ccc3ncnc(Nc4ccc(Oc5ccn6ncnc6c5)c(Cl)c4F)c3n1)C2` [Example 238, 1-(3-(4-((4-([1,2,4]triazolo[1,5-a]pyridin-7-yloxy)-3-chloro-2-fluorophenyl)amino)pyrido[3,2-d]pyrimidin-6-yl)-3,8-diazabicyclo[3.2.1]octan-8-yl)prop-2-en-1-one], the IC50 against ErbB2 WT (ErbB2 WT enzyme) is 0.0117 µM; on EGFR (EGFR enzyme), 0.114 µM; in assay [1] (ErbB2 YVMA phosphorylation), 0.0055 µM; against EGFR wild type (EGFR WT) (setting [2]), 0.0903 µM.

In the case of `C=CC(=O)N(C)[C@@H]1CCN(c2ccc3ncnc(Nc4ccc(Oc5ccn6ncnc6c5)c(C)c4F)c3n2)C1` [Example 349], the half-inhibitory concentration (IC50) on ErbB2 WT (ErbB2 WT enzyme assay) is 0.0293 µM; against EGFR (EGFR enzyme assay), 2.68 µM; in assay [1] (setting [3]), 0.0358 µM; against EGFR wild type (EGFR WT) (setting [4]), no less than 5 µM.

With `C=CC(=O)N1CCC[C@@H](c2ccc3ncnc(Nc4ccc(Oc5ccn6ncnc6c5)c(C)c4F)c3n2)CC1` (single isomer, unassigned) [Example 209], the IC50 came to 0.0164 µM against ErbB2 WT (ErbB2 WT enzyme), 0.872 µM on EGFR (EGFR enzyme), 0.0201 µM in assay [1] (ErbB2 YVMA phosphorylation) and 0.503 µM on EGFR wild type (EGFR WT) (setting [2]).

With `C=CC(=O)N1[C@@H]2CC[C@H]1C[C@@H](c1ccc3ncnc(Nc4ccc(Oc5ccn6ncnc6c5)c(C)c4)c3n1)C2` [Example 215, 1-((1R,3r,5S)-3-(4-((4-([1,2,4]triazolo[1,5-a]pyridin-7-yloxy)-3-methylphenyl)amino)pyrido[3,2-d]pyrimidin-6-yl)-8-azabicyclo[3.2.1]octan-8-yl)prop-2-en-1-one], the half-maximal inhibitory concentration (IC50) against ErbB2 WT (ErbB2 WT enzyme) was 0.0295 µM; against EGFR (EGFR enzyme), 3.31 µM; in assay [1] (ErbB2 YVMA phosphorylation) it was 0.0295 µM; against EGFR wild type (EGFR WT) (setting [2]) it was no less than 5 µM.

For the compound `C=CC(=O)N1C[C@H](c2ccc3ncnc(Nc4cc(C)c(Oc5ccn6ncnc6c5)cc4F)c3n2)C[C@H]1C` (mixture of isomers) [Example 386], the IC50 against ErbB2 WT (ErbB2 WT enzyme assay) is 0.22 µM; on EGFR (EGFR enzyme assay) it was no less than 10 µM; in assay [1] (setting [3]), 0.235 µM; at EGFR wild type (EGFR WT) (setting [4]), no less than 5 µM.

Regarding `C=CC(=O)N1CCN(c2ccc3ncnc(Nc4ccc(Oc5ccn6ncnc6c5)c(Cl)c4F)c3n2)CC12CC2` [Example 363], the IC50 against ErbB2 WT (ErbB2 WT enzyme assay) is 0.0018 µM; against EGFR (EGFR enzyme assay) it was 0.0223 µM; in assay [1] (setting [3]), 0.0032 µM; against EGFR wild type (EGFR WT) (setting [4]), 0.0358 µM.

With `C=CC(=O)N1CCN(c2ccc3ncnc(Nc4ccc(Oc5ccn6ncnc6c5)c(C(F)F)c4)c3n2)CC1(C)C` [Example 451], the IC50 against ErbB2 WT (ErbB2 WT enzyme assay) amounted to 0.106 µM; against EGFR (EGFR enzyme assay), 6.26 µM; in assay [1] (setting [3]), 0.0493 µM; against EGFR wild type (EGFR WT) (setting [4]) it was 3.34 µM.

Turning to `C=CC(=O)N1CCN(c2ccc3ncnc(Nc4cc(Cl)c(Oc5cnc6c(c5)ncn6C)cc4F)c3n2)C[C@H]1C1CC1` [Example 430], the IC50 against ErbB2 WT (ErbB2 WT enzyme assay) is 0.307 µM; against EGFR (EGFR enzyme assay), no less than 10 µM; in assay [1] (setting [3]), 0.0382 µM; against EGFR wild type (EGFR WT) (setting [4]), no less than 5 µM.

One may read the IC50 as the point on the concentration scale where inhibition reaches its midpoint. A low value points to inhibition by little substance.

For the origin of these results see US12447153B2, “HER2 mutation inhibitors” (Array BioPharma Inc., priority 2021, dated 2025).
